From patent publication US8648113B2, “Mixture and compounds from mycelia of Antrodia camphorata and use thereof” (Simpson Biotech Co., Ltd., priority 2004, dated 2014)
“And” between values parts separate entries of the source, which are not always exact repeats. Identical values can stand only once. Like-named read-outs stand apart in the source and are kept apart here.

Assays:
[1] = test system: LLC (Lewis lung carcinoma) cell line; assay: Cytotoxic assay, in vitro LLC tumor cell assay (SRB method); conditions: for 50% Growth Inhibition (ED50): SRB method
[2] = test system: LLC (Lewis lung carcinoma) cell line
[3] = test system: spontaneously hypertensive rats (SHR); conditions: 0.1 mg/kg PO, Ave. of 3 rats (Tables 7 and 9: two experiments)
Method: Blood pressure and heart rate were recorded indirectly by tail cuff method in a temperature controlled environment (32±1° C.) before (0 time) and 1, 2 and 4 hours after oral administration of test substance or vehicle. A reduction in systolic pressure by 10 percent or more (>10%), or decrease in heart rate by 20 percent or more (≧20%), at each measured time interval relative to 0 time, is considered significant.
Blood pressure was recorded indirectly vial tail cuff at 0 time (before) and 1, 2 and 4 hours after oral administration of vehicle or test substance. A reduction in blood pressure by 10 percent or more (10%), or decrease in heart rate by 20 percent or more (≧20%) at each measurement time point relative to 0 time, shown in parenthesis, is considered significant.

[4] = test system: HT-29: human colon adenocarcinoma; assay: Tumor assay of ACM, MTT method, HT-29; assay type: cell-based; conditions: 3 days
Source text: (§1) Tumor Assay of ACM (Antrodia camphorata Mycelia Powder) A. Cell Line • Adherent Cell • MCF-7: human breast carcinoma • HT-29: human colon adenocarcinoma • KATO III: human stomach carcinoma • SW480: human colon adenocarcinoma • SW620: human colon adenocarcinoma • HepG2: human liver carcinoma • Suspension Cell • EL4: mice lymphoma B. Samples • Compound 1, Compound 3, ACM EtOH Extract, ACM H2O Extract C. Assay Method • Calculate ED50 (50% inhibition of effective dose) • Adherent cell: MTT (methyl thiazolyl tetrazolium) method for MCF-7, HT-29, KATO III, SW480, HepG2, cells are determined at 3 days. SW620 at 4 days • Suspension cell: Cell count method; EL4 cells count at 5 days D. Result Calculation: y=m Ln(x)+b
(§2) Use value of X (10, 30, 50 ppm) and Y to get correlation curve y=−0.2643 Ln(x)+1.5321 ED50=exp[0.97/2−1.5321/(−0.2643)] Sample Preparation and Sample Description A. ACM (Antrodia Camphorata Mycelia Powder) H2O Extract 1. Add 1 g of ACM into 40 ml of RO H2O in a 250 ml beaker, put the beaker in ultrasonic water bath for 20 min at room temperature 2. Stir at 45° C. water bath for 45 min 3. Place the beaker in ultrasonic water bath for another 20 min 4. Centrifuge the sample at 3000 rpm for 15 min 5. Collect supernatant and perform serial dilutions with media B. Determination of Sample Concentration 1. […] Read at OD545 on Elisa reader Cell Count Method (EL4 Cell Line) 1. […]

[5] = test system: MCF-7: human breast carcinoma; assay: Tumor assay of ACM, MTT method, MCF-7; assay type: cell-based; conditions: 3 days
Source text: as §1, §2

[6] = test system: SW620: human colon adenocarcinoma; assay: Tumor assay of ACM, MTT method, SW620; assay type: cell-based; conditions: 4 days
Source text: as §1, §2

[7] = test system: KATO III: human stomach carcinoma; assay: Tumor assay of ACM, MTT method, KATO III; assay type: cell-based; conditions: 3 days
Source text: as §1, §2

[8] = test system: HepG2: human liver carcinoma; assay: Tumor assay of ACM, MTT method, HepG2; assay type: cell-based; conditions: 3 days
Source text: as §1, §2

[9] = test system: EL4: mice lymphoma; assay: Tumor assay of ACM, cell count method, EL4; assay type: cell-based; conditions: 5 days
Source text: as §1, §2

[10] = test system: ICR derived male mice, carbon tetrachloride induced hepatic injury; assay: Hepatic Injury, Carbon Tetrachloride, in Mice; assay type: in vivo, mouse; conditions: for ALT, group mean (X) / AST, group mean (X) / ALT, individual animal / AST, individual animal: CCl4-challenged ICR mice; for ALT, group mean (X) / AST, group mean (X): mean of 5; for ALT, individual animal / AST, individual animal: single animals N 1-5, 24 h after CCl4; for ALT Dec. % / AST Dec. %: decrease relative to vehicle group, brackets = 30% or greater
Method: Nine groups of ICR derived male mice (weighing 22±2 g) of 5 each were used. Each animals was challenged with a single dose of carbon tetrachloride (CCl4, 0.1 ml/kg in 50% olive oil, PO). […] The animals were sacrificed 24 hours after CCl4. Alanine aminotransferase (ALT) and Aspartate aminotransferase (AST) levels were measured by optimized UV method using a HITACHI automatic analyzer (model 7050). A reduction of ALT or AST levels by 30 percent or greater (30%), relative to the vehicle group, indicating significant protection from hepatic injury.
The test substance of ACM at doses 300 and 1000 mg/kg and compound 3 of the invention at doses 30, 100 and 300 mg/kg were administered orally to test animals 0.5 hour before and 4, 8 hours after CCl4 challenge. […] The degree of hepatic injury was determined by increase in serum alanine aminotransferase (ALT) and aspartate aminotransferase (AST) levels relative to the vehicle treated animals. ACM at 1000 mg/kg×3 and compound 3 of the invention at 300 mg/kg×3 caused a significant reduction of ALT (46% and 41%) and AST (36% and 33%) relative to the vehicle treated animals.

[11] = test system: SW480: human colon adenocarcinoma; assay: Tumor assay of ACM, MTT method, SW480; assay type: cell-based; conditions: 3 days
Source text: as §1, §2

[12] = test system: Wistar derived male rats, D-galactosamine induced hepatic injury; assay: Hepatic Injury, D-Galactosamine in rats; assay type: in vivo, rat; conditions: 300 mg/kg × 3 PO (Guanine, reference)
Method: Groups of 5 Wistar derived male rats weighing 200±20 g were used. Each animal was treated with a single injection of D-galactosamine (500 mg/kg, IP) Test substance was administered orally at 0.5 hour before and 4 hours as well as 8 hours after D-galactosamine administration and animals were sacrificed 24 hours later. […] Reduction in ALT or AST activity by 30 percent or more (30%), relative to the vehicle treated control animal indicates significant protection.
Test substance and vehicle were administered orally at 0.5 hour before and 4, 8 hours after a single dose of galactosamine (500 mg/kg, IP). The rats were sacrificed 24 hours after galactosamine injection and the ALT and AST values were determined A reduction of 30% in the ALT and AST relative to the vehicle group is considered significant. • 3. Winter et al., Inflammation, Carrageenan, Proc. Soc.

Structure (SMILES): CC(C)=CCOc1ccc([C@H]2C(=O)N(O)C(=O)[C@@H]2CC(C)C)cc1 (relative stereo) [Compound 4, 3R*,4S*-1-Hydroxy-3-isobutyl-4-[4-(3-methyl-2-butenyloxy)phenyl]pyrrolidine-2,5-dione]
- 50% Growth Inhibition (ED50) [1]: >10 µg/mL
- cytotoxic activity (in words) [2]: no cytotoxic activity

Structure (SMILES): Clc1cccc(Cl)c1N=C1NCCN1 [Clonidine]
- Heart Rate % Control (from 0 times), 2 Hours [3]: 90% and 86%
- Heart Rate % Control (from 0 times), 4 Hours [3]: 98% and 102%

Structure (SMILES): CC(C)=CCOc1ccc(C2=C(CC(C)C)C(=O)OC2=O)cc1 [Compound 1, 3-Isobutyl-4-[4-(3-methyl-2-butenyloxy)phenyl]furan-2,5-dione]
- cytotoxic activity (in words) [1]: no cytotoxic activity
- 50% Growth Inhibition (ED50) [1]: >20 µg/mL
- ED50 [4]: 52 ppm
- ED50 [5]: 6 ppm
- ED50 [6]: 15 ppm
- ED50 [7]: 38 ppm
- ED50 [8]: 21 ppm
- ED50 [9]: 3.5 ppm

Structure (SMILES): CC(C)=CCOc1ccc(C2=C(CC(C)C)C(=O)N(O)C2=O)cc1 [Compound 3, 3-Isobutyl-4-[4-(3-methyl-2-butenyloxy)phenyl]-1H-pyrrol-1-ol-2,5-dione]
- cytotoxic activity (in words) [1]: cytotoxic
- 50% Growth Inhibition (ED50) [1]: 7.5 µg/mL
- ED50 [4]: 42 ppm
- ED50 [5]: 0.02 ppm
- ED50 [6]: 27 ppm
- reduction of ALT relative to the vehicle treated animals ([10]; CCl4 mice, 300 mg/kg×3 PO): 41%
- reduction of AST relative to the vehicle treated animals ([10]; CCl4 mice, 300 mg/kg×3 PO): 33%
- ALT, group mean (X) ([10]; PO 30 mg/kg × 3): 3360 U/L
- AST, group mean (X) ([10]; PO 30 mg/kg × 3): 1962 U/L
- ALT, individual animal ([10]; PO 30 mg/kg × 3): 4296 U/L and 3696 U/L and 2152 U/L and 2400 U/L and 4256 U/L
- AST, individual animal ([10]; PO 30 mg/kg × 3): 2136 U/L and 2288 U/L and 1096 U/L and 1792 U/L and 2496 U/L
- ALT Dec. % ([10]; PO 30 mg/kg × 3): −1%
- AST Dec. % ([10]; PO 30 mg/kg × 3): −16%
- ALT, group mean (X) ([10]; PO 100 mg/kg × 3): 3342 U/L
- AST, group mean (X) ([10]; PO 100 mg/kg × 3): 1984 U/L
- ALT, individual animal ([10]; PO 100 mg/kg × 3): 3200 U/L and 4576 U/L and 2512 U/L and 2728 U/L and 3696 U/L
- AST, individual animal ([10]; PO 100 mg/kg × 3): 2256 U/L and 2976 U/L and 1536 U/L and 1552 U/L and 1600 U/L
- ALT Dec. % ([10]; PO 100 mg/kg × 3): 0%
- AST Dec. % ([10]; PO 100 mg/kg × 3): −17%
- ALT, group mean (X) ([10]; PO 300 mg/kg × 3): 1966 U/L
- AST, group mean (X) ([10]; PO 300 mg/kg × 3): 1130 U/L
- ALT, individual animal ([10]; PO 300 mg/kg × 3): 1368 U/L and 1576 U/L and 1440 U/L and 2728 U/L and 2720 U/L
- AST, individual animal ([10]; PO 300 mg/kg × 3): 776 U/L and 896 U/L (2×) and 1352 U/L and 1728 U/L
- ALT Dec. % ([10]; PO 300 mg/kg × 3): (41) %
- AST Dec. % ([10]; PO 300 mg/kg × 3): (33) %
- ED50 [7]: 69 ppm
- ED50 [8]: 35 ppm
- ED50 [11]: 20 ppm
- ED50 [9]: 2.6 ppm

Structure (SMILES): Nc1nc2nc[nH]c2c(=O)[nH]1 [Guanine]
- Serum ALT ([12]; individual rats, 300 mg/kg): 508 U/L and 532 U/L and 412 U/L and 436 U/L and 636 U/L
- Serum AST ([12]; individual rats, 300 mg/kg): 656 U/L and 912 U/L and 776 U/L and 652 U/L and 1028 U/L
- Serum ALT Dec. % ([12]; relative to vehicle): (34) %
- Serum AST Dec. % ([12]; relative to vehicle): (33) %
